Data reported in ChEMBL document CHEMBL4038282 (Eur J Med Chem, 2017).
Converted amounts (≈) assume the structure as drawn. Values belong to the compound of their own block, whether it stands above or below them. The source made the active and inactive calls. No cut-off for these calls is given here.

Assays:
[1] = test system: MDA-MB-231; experiment: Antiproliferative activity against human MDA-MB-231 cells up to 72 hrs by MTT assay; assay type: functional, cell-based; conditions: MDA-MB-231, 72 h
[2] = test system: MDA-MB-231; experiment: Potency index, ratio of curcumin IC50 to compound IC50 for human MDA-MB-231 cells; assay type: functional
[3] = test system: HCT-116; experiment: Antiproliferative activity against human HCT116 cells up to 72 hrs by MTT assay; assay type: functional, cell-based; conditions: HCT-116, 72 h
[4] = test system: PC-3; experiment: Antiproliferative activity against human PC3 cells up to 72 hrs by MTT assay; assay type: functional, cell-based; conditions: PC-3, 72 h
[5] = Stability of the compound in culture media measured after 72 hrs in presence of curcumin by HPLC method
[6] = test system: T47D; experiment: Antiproliferative activity against ER/PR positive human T47D cells after 24 hrs by MTT assay; assay type: functional, cell-based
[7] = test system: MCF7; experiment: Antiproliferative activity against ER/PR positive human MCF7 cells after 24 hrs by MTT assay; assay type: functional, cell-based; conditions: MCF7, 24 h
[8] = test system: MDA-MB-453; experiment: Antiproliferative activity against HER2 positive human MDA-MB-453 cells after 24 hrs by MTT assay; assay type: functional, cell-based; conditions: MDA-MB-453, 24 h
[9] = test system: MDA-MB-157; experiment: Antiproliferative activity against human MDA-MB-157 cells after 24 hrs by MTT assay; assay type: functional, cell-based; conditions: MDA-MB-157, 24 h
[10] = test system: BT-474; experiment: Antiproliferative activity against HER2 positive human BT474 cells after 24 hrs by MTT assay; assay type: functional, cell-based; conditions: BT-474, 24 h
[11] = test system: SK-BR-3; experiment: Antiproliferative activity against HER2 positive human SKBR3 cells after 24 hrs by MTT assay; assay type: functional, cell-based; conditions: SK-BR-3, 24 h
[12] = test system: MDA-MB-468; experiment: Antiproliferative activity against human MDA-MB-468 cells after 24 hrs by MTT assay; assay type: functional, cell-based; conditions: MDA-MB-468, 24 h
[13] = test system: Hs-578T; experiment: Antiproliferative activity against human Hs578T cells after 24 hrs by MTT assay; assay type: functional, cell-based
[14] = test system: MDA-MB-468; experiment: Antiproliferative activity against doxorubicin-resistant human MDA-MB-468 cells after 24 hrs by MTT assay; assay type: functional, cell-based; conditions: MDA-MB-468, 24 h
[15] = test system: T47D; experiment: Potency index, ratio of curcumin IC50 to compound IC50 for ER/PR positive human T47D cells; assay type: functional
[16] = test system: MCF7; experiment: Potency index, ratio of curcumin IC50 to compound IC50 for ER/PR positive human MCF7 cells; assay type: functional
[17] = test system: MDA-MB-453; experiment: Potency index, ratio of curcumin IC50 to compound IC50 for HER2 positive human MDA-MB-453 cells; assay type: functional
[18] = test system: BT-474; experiment: Potency index, ratio of curcumin IC50 to compound IC50 for HER2 positive human BT474 cells; assay type: functional
[19] = test system: SK-BR-3; experiment: Potency index, ratio of curcumin IC50 to compound IC50 for HER2 positive human SKBR3 cells; assay type: functional
[20] = test system: MDA-MB-468; experiment: Potency index, ratio of curcumin IC50 to compound IC50 for human MDA-MB-468 cells; assay type: functional
[21] = test system: MDA-MB-157; experiment: Potency index, ratio of curcumin IC50 to compound IC50 for human MDA-MB-157 cells; assay type: functional
[22] = test system: Hs-578T; experiment: Potency index, ratio of curcumin IC50 to compound IC50 for human Hs578T cells; assay type: functional
[23] = test system: MDA-MB-468; experiment: Potency index, ratio of curcumin IC50 to compound IC50 for doxorubicin-resistant human MDA-MB-468 cells; assay type: functional
[24] = test system: MDA-MB-231; experiment: Antiproliferative activity against human MDA-MB-231 cells at 1 to 3 uM in presence of doxorubicin by MTT assay; assay type: functional, cell-based
[25] = test system: Mus musculus; experiment: Toxicity in nu/nu mouse assessed as changes in body weight at 5 to 50 mg/kg, po administered once daily for 32 days measured every 4 days during compound dosing; assay type: organism-based; conditions: in vivo
[26] = test system: MDA-MB-231; experiment: Anti-tumor activity against human MDA-MB-231 cells xenografted in nu/nu mouse assessed as reduction in tumor size at 50 mg/kg, po administered once daily for 32 days measured every 4 days during compound dosing relative to control; assay type: functional; set-up: scale not given: the % may be the effect or the level left
[27] = test system: Mus musculus; experiment: Toxicity in nu/nu mouse assessed as effect on food consumption at 5 to 50 mg/kg, po administered once daily for 32 days measured during compound dosing; assay type: organism-based; conditions: in vivo, 768 h
[28] = test system: Mus musculus; experiment: Toxicity in nu/nu mouse assessed as behavioral changes at 5 to 50 mg/kg, po administered once daily for 32 days measured during compound dosing; assay type: organism-based; conditions: in vivo, 768 h
[29] = test system: Mus musculus; experiment: Toxicity in nu/nu mouse assessed as change in total protein level at 5 to 50 mg/kg, po administered once daily for 32 days measured post last dose; assay type: organism-based; conditions: in vivo, 768 h
[30] = test system: Mus musculus; experiment: Toxicity in nu/nu mouse assessed as change in serum albumin level at 5 to 50 mg/kg, po administered once daily for 32 days measured post last dose; assay type: organism-based; conditions: in vivo, 768 h
[31] = test system: Mus musculus; experiment: Toxicity in nu/nu mouse assessed as change in serum creatinine level at 5 to 50 mg/kg, po administered once daily for 32 days measured post last dose; assay type: organism-based; conditions: in vivo, 768 h
[32] = test system: Mus musculus; experiment: Toxicity in nu/nu mouse assessed as change in blood urea nitrogen level at 5 to 50 mg/kg, po administered once daily for 32 days measured post last dose; assay type: organism-based; conditions: in vivo, 768 h
[33] = test system: Mus musculus; experiment: Toxicity in nu/nu mouse assessed as change in blood glucose level at 5 to 50 mg/kg, po administered once daily for 32 days measured post last dose; assay type: organism-based; conditions: in vivo, 768 h
[34] = test system: Mus musculus; experiment: Toxicity in nu/nu mouse assessed as change in blood uric acid level at 5 to 50 mg/kg, po administered once daily for 32 days measured post last dose; assay type: organism-based; conditions: in vivo, 768 h
[35] = test system: MDA-MB-231; experiment: Anti-tumor activity against human MDA-MB-231 cells xenografted in nu/nu mouse assessed as reduction in tumor weight at 50 mg/kg, po administered once daily for 32 days; assay type: functional; set-up: scale not given: the % may be the effect or the level left
[36] = test system: MDA-MB-231; experiment: Anti-tumor activity against human MDA-MB-231 cells xenografted in nu/nu mouse assessed as reduction in tumor weight at 50 mg/kg, po administered once daily for 32 days in presence of doxorubicin; assay type: functional; set-up: scale not given: the % may be the effect or the level left
[37] = test system: Mus musculus; experiment: Toxicity in nu/nu mouse assessed as behavioral changes at 50 mg/kg, po administered once daily for 32 days in presence of doxorubicin; assay type: organism-based; conditions: in vivo, 768 h
[38] = test system: Mus musculus; experiment: Toxicity in nu/nu mouse assessed as change in body weight at 50 mg/kg, po administered once daily for 32 days in presence of doxorubicin; assay type: organism-based; conditions: in vivo, 768 h
[39] = test system: Mus musculus; experiment: Toxicity in nu/nu mouse assessed as hematological changes at 50 mg/kg, po administered once daily for 32 days in presence of doxorubicin; assay type: organism-based; conditions: in vivo, 768 h
[40] = test system: MDA-MB-231; experiment: Cell cycle arrest in human MDA-MB-231 cells assessed as increase in G2/M population by propidium iodide staining based flow cytometry; assay type: functional
[41] = Solubility of the compound in water after 24 hrs by shake-flask method; assay type: physicochemical
[42] = test system: MDA-MB-231; experiment: Induction of autophagy in human MDA-MB-231 cells; assay type: functional, cell-based
[43] = test system: MDA-MB-231; experiment: Induction of apoptosis in human MDA-MB-231 cells; assay type: functional, cell-based
[44] = test system: MDA-MB-231; experiment: Effect on heme oxygenase-1 expression in human MDA-MB-231 cells by microarray analysis; assay type: functional, cell-based
[45] = test system: Mus musculus; experiment: Acute-toxicity in nu/nu mouse assessed as changes in body weight at 500 mg/kg, po administered once daily for 5 days measured for 21 days; assay type: organism-based; conditions: in vivo, 504 h
[46] = test system: Mus musculus; experiment: Acute-toxicity in nu/nu mouse assessed as behavioral changes at 500 mg/kg, po administered once daily for 5 days measured for 21 days; assay type: organism-based; conditions: in vivo, 504 h
[47] = Solubility of the compound in ethanol after 24 hrs by shake-flask method; assay type: physicochemical; conditions: ethanol
[48] = test system: MDA-MB-231; experiment: Potency index, ratio of test compound to curcumin for anti-tumor activity against human MDA-MB-231 cells xenografted in nu/nu mouse; assay type: functional
[49] = test system: MDA-MB-231; experiment: Anti-tumor activity against human MDA-MB-231 cells xenografted in nu/nu mouse assessed as reduction in tumor weight at 1 mg/kg, ip administered once daily for 32 days; assay type: functional; set-up: scale not given: the % may be the effect or the level left
[50] = test system: Mus musculus; experiment: Toxicity in nu/nu mouse assessed as behavioral changes at 1 mg/kg, ip administered once daily for 32 days; assay type: organism-based; conditions: in vivo, 768 h
[51] = test system: Mus musculus; experiment: Toxicity in nu/nu mouse assessed as change in body weight at 1 mg/kg, ip administered once daily for 32 days; assay type: organism-based; conditions: in vivo, 768 h
[52] = test system: Mus musculus; experiment: Toxicity in nu/nu mouse assessed as hematological changes at 1 mg/kg, ip administered once daily for 32 days; assay type: organism-based; conditions: in vivo, 768 h

IC50 [1]: 6.74 µM | IC50 [3]: 4.1 µM | IC50 [4]: 5.59 µM
Structure (SMILES): CC(CO)(CO)C(=O)Oc1ccc(/C=C/C(=O)/C=C(O)/C=C/c2ccc(OC(=O)C(C)(CO)CO)cc2)cc1
Ratio IC50 [2]: 2.4 - 12.2

IC50 [1]: 2.98 µM | IC50 [3]: 2.63 µM | IC50 [4]: 3.62 µM
Structure (SMILES): CC(CO)(CO)C(=O)Oc1ccc(/C=C/C(=O)C(C)(C)C(=O)/C=C/c2ccc(OC(=O)C(C)(CO)CO)cc2)cc1
Ratio IC50 [2]: 2.4 - 12.2

The remaining lines, values behind:

Structure (SMILES): COc1cc(/C=C/C(=O)/C=C(O)/C=C/c2ccc(OC(=O)C(C)(CO)CO)c(OC)c2)ccc1OC(=O)C(C)(CO)CO
IC50 [1]: 2.67 µM | Ratio IC50 [2]: 6.1 | Stability [5]: Stable | IC50 [3]: 3.91 µM | IC50 [4]: 3.9 µM | IC50 [6]: 19.3 µM | IC50 [7]: 6.13 µM | IC50 [8]: 3.97 µM | IC50 [9]: 9.23 µM | IC50 [10]: 6.15 µM | IC50 [11]: 6.39 µM | IC50 [12]: 6.13 µM | IC50 [13]: 7.96 µM | IC50 [14]: 6.52 µM | Ratio IC50 [15]: 2.5 - 8.6 | Ratio IC50 [16]: 2.5 - 8.6 | Ratio IC50 [17]: 2.5 - 8.6 | Ratio IC50 [18]: 2.5 - 8.6 | Ratio IC50 [19]: 2.5 - 8.6 | Ratio IC50 [20]: 3.4 - 7.4 | Ratio IC50 [21]: 3.4 - 7.4 | Ratio IC50 [22]: 3.4 - 7.4 | Ratio IC50 [23]: 10 | Activity [24]: Active | Activity [25]: Non-Toxic | Activity [26]: 60% | Activity [27]: Non-Toxic | Activity [28]: Non-Toxic | Activity [29]: Non-Toxic | Activity [30]: Non-Toxic | Activity [31]: Non-Toxic | Activity [32]: Non-Toxic | Activity [33]: Non-Toxic | Activity [34]: Non-Toxic | Activity [35]: 60% | Activity [36]: 80% | Activity [37]: Non-Toxic | Activity [38]: Non-Toxic | Activity [39]: Non-Toxic | Activity [40]: Active | solubility thermodynamic at 24 h [41]: 21.1 µg/mL (≈ 0.0351 mM) | Activity [42]: Active | Activity [43]: Active | Activity [44]: Active | Activity [45]: Non-Toxic | Activity [46]: Non-Toxic | solubility thermodynamic at 24 h [47]: 13.8 mg/mL (≈ 23.1 mM) | Ratio [48]: 10

Structure (SMILES): COc1cccc2c1C(=O)c1c(O)c3c(c(O)c1C2=O)C[C@@](O)(C(=O)CO)C[C@@H]3O[C@H]1C[C@H](N)[C@H](O)[C@H](C)O1 [DOXORUBICIN]
Activity [49]: 60% | Activity [50]: Non-Toxic | Activity [51]: Non-Toxic | Activity [52]: Non-Toxic

Structure (SMILES): COc1cc(/C=C/C(O)=C/C(=O)/C=C/c2ccc(OC(=O)C(C)(CO)CO)c(OC)c2)ccc1O
IC50 [1]: 5.94 µM | Ratio IC50 [2]: 2.4 - 12.2 | IC50 [3]: 15.5 µM | IC50 [4]: 17.4 µM
